{"source": "the supplement of paper PMC10307832", "assay_in_all_cases": "relative viability (nuclei count vs DMSO), 5 days (fraction); higher = more cells survive", "key": {"EKVX": {"test_system": "EKVX", "procedure,_shortened": "(§1)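 Relative viability equals treated-well nuclei counts divided by vehicle-well nuclei counts. Counts came from 4× images of lung cancer cell lines grown in 1536-well plates for 5 days after pin-tool dosing on the day after seeding. Dosing used one drug alone or a fixed anchor-drug dose plus five library-drug doses (not always all listed) in √10 steps, and values are medians of duplicate plates.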"}, "COR-L 105": {"test_system": "COR-L 105", "procedure,_shortened": "as §1"}, "NCI-H1437": {"test_system": "NCI-H1437", "procedure,_shortened": "as §1"}, "NCI-H2170": {"test_system": "NCI-H2170", "procedure,_shortened": "as §1"}, "SW 900": {"test_system": "SW 900", "procedure,_shortened": "as §1"}, "201T": {"test_system": "201T", "procedure,_shortened": "as §1"}, "NCI-H460": {"test_system": "NCI-H460", "procedure,_shortened": "as §1"}, "HCC-366": {"test_system": "HCC-366", "procedure,_shortened": "as §1"}, "NCI-H441": {"test_system": "NCI-H441", "procedure,_shortened": "as §1"}, "NCI-H727": {"test_system": "NCI-H727", "procedure,_shortened": "as §1"}, "LK-2": {"test_system": "LK-2", "procedure,_shortened": "as §1"}}, "data": [{"smiles": "Nc1ccn([C@@H]2O[C@H](CO)[C@@H](O)[C@@H]2O)c(=O)n1", "note": "[Cytarabine] + Nc1ncn([C@H]2C[C@H](O)[C@@H](CO)O2)c(=O)n1 [Decitabine] (partner 2 µM)", "values": [{"measurement": "relative viability", "setting": "EKVX; first compound 0.005 µM", "result": 0.485}, {"measurement": "relative viability", "setting": "EKVX; first compound 0.01581 µM", "result": 0.282}, {"measurement": "relative viability", "setting": "EKVX; first compound 0.05 µM", "result": 0.259}, {"measurement": "relative viability", "setting": "EKVX; first compound 0.5 µM", "result": 0.184}, {"measurement": "relative viability", "setting": "COR-L 105; first compound 0.005 µM", "result": 0.623}, {"measurement": "relative viability", "setting": "COR-L 105; first compound 0.01581 µM", "result": 0.642}, {"measurement": "relative viability", "setting": "COR-L 105; first compound 0.05 µM", "result": 0.426}, {"measurement": "relative viability", "setting": "COR-L 105; first compound 0.1581 µM", "result": 0.398}, {"measurement": "relative viability", "setting": "COR-L 105; first compound 0.5 µM", "result": 0.303}, {"measurement": "relative viability", "setting": "NCI-H1437; first compound 0.005 µM", "result": 0.498}, {"measurement": "relative viability", "setting": "NCI-H1437; first compound 0.01581 µM", "result": 0.442}, {"measurement": "relative viability", "setting": "NCI-H1437; first compound 0.05 µM", "result": 0.48}, {"measurement": "relative viability", "setting": "NCI-H1437; first compound 0.1581 µM", "result": 0.338}, {"measurement": "relative viability", "setting": "NCI-H1437; first compound 0.5 µM", "result": 0.268}, {"measurement": "relative viability", "setting": "NCI-H2170; first compound 0.005 µM", "result": 0.393}, {"measurement": "relative viability", "setting": "NCI-H2170; first compound 0.01581 µM", "result": 0.346}, {"measurement": "relative viability", "setting": "NCI-H2170; first compound 0.05 µM", "result": 0.355}, {"measurement": "relative viability", "setting": "NCI-H2170; first compound 0.1581 µM", "result": 0.254}, {"measurement": "relative viability", "setting": "NCI-H2170; first compound 0.5 µM", "result": 0.241}, {"measurement": "relative viability", "setting": "SW 900; first compound 0.005 µM", "result": 0.384}, {"measurement": "relative viability", "setting": "SW 900; first compound 0.01581 µM", "result": 0.344}, {"measurement": "relative viability", "setting": "SW 900; first compound 0.05 µM", "result": 0.325}, {"measurement": "relative viability", "setting": "SW 900; first compound 0.1581 µM", "result": 0.199}, {"measurement": "relative viability", "setting": "SW 900; first compound 0.5 µM", "result": 0.287}, {"measurement": "relative viability", "setting": "201T; first compound 0.005 µM", "result": 0.847}, {"measurement": "relative viability", "setting": "201T; first compound 0.01581 µM", "result": 0.853}, {"measurement": "relative viability", "setting": "201T; first compound 0.05 µM", "result": 0.802}, {"measurement": "relative viability", "setting": "201T; first compound 0.1581 µM", "result": 0.72}, {"measurement": "relative viability", "setting": "201T; first compound 0.5 µM", "result": 0.668}, {"measurement": "relative viability", "setting": "NCI-H460; first compound 0.005 µM", "result": 0.451}, {"measurement": "relative viability", "setting": "NCI-H460; first compound 0.01581 µM", "result": 0.406}, {"measurement": "relative viability", "setting": "NCI-H460; first compound 0.05 µM", "result": 0.336}, {"measurement": "relative viability", "setting": "NCI-H460; first compound 0.1581 µM", "result": 0.0621}, {"measurement": "relative viability", "setting": "NCI-H460; first compound 0.5 µM", "result": 0.0458}, {"measurement": "relative viability", "setting": "HCC-366; first compound 0.005 µM", "result": 0.402}, {"measurement": "relative viability", "setting": "HCC-366; first compound 0.01581 µM", "result": 0.292}, {"measurement": "relative viability", "setting": "HCC-366; first compound 0.05 µM", "result": 0.231}, {"measurement": "relative viability", "setting": "HCC-366; first compound 0.1581 µM", "result": 0.0925}, {"measurement": "relative viability", "setting": "HCC-366; first compound 0.5 µM", "result": 0.0894}, {"measurement": "relative viability", "setting": "NCI-H441; first compound 0.005 µM", "result": 0.289}, {"measurement": "relative viability", "setting": "NCI-H441; first compound 0.01581 µM", "result": 0.186}, {"measurement": "relative viability", "setting": "NCI-H441; first compound 0.05 µM", "result": 0.268}, {"measurement": "relative viability", "setting": "NCI-H441; first compound 0.1581 µM", "result": 0.182}, {"measurement": "relative viability", "setting": "NCI-H441; first compound 0.5 µM", "result": 0.153}, {"measurement": "relative viability", "setting": "NCI-H727; first compound 0.005 µM", "result": 0.964}, {"measurement": "relative viability", "setting": "NCI-H727; first compound 0.01581 µM", "result": 0.713}, {"measurement": "relative viability", "setting": "NCI-H727; first compound 0.05 µM", "result": 0.443}, {"measurement": "relative viability", "setting": "NCI-H727; first compound 0.1581 µM", "result": 0.474}, {"measurement": "relative viability", "setting": "NCI-H727; first compound 0.5 µM", "result": 0.522}, {"measurement": "relative viability", "setting": "LK-2; first compound 0.005 µM", "result": 0.234}, {"measurement": "relative viability", "setting": "LK-2; first compound 0.01581 µM", "result": 0.249}, {"measurement": "relative viability", "setting": "LK-2; first compound 0.05 µM", "result": 0.15}]}]}
